Data on nine molecules can be found in patent publication US20050034189A1, “Chitin oligosaccharide elicitor- and gibberellin-responsive genes in plants, and uses thereof” (National Institute of Agrobiological Sciences, priority 2001, published 2005).

Test [1] has as its system CIGR1 gene and CIGR2 gene. The test is described as follows: Gibberellin responsiveness of CIGR1 and CIGR2 genes in suspension-cultured rice cells, Northern blot hybridization. The class given is cell-based, rice (Oryza sativa cv. Nipponbare). The settings on record: for induction of CIGR1 and CIGR2 gene expression by gibberellin species: ten-minute treatment of cultured rice cells. As for the experimental part: (§1) (1) Cultured rice cells: The cultured cells of rice were induced from germinating rice seeds (Oryza sativa cv. Nipponbare) on a N6 agar plate containing 1 ppm 2,4-D (auxin; 2,4-dichlorophenoxyacetic acid). The cells were successively cultured in liquid N6 medium as follows. Once a week, cells of about 1 ml in volume were transferred to 150 ml N6 medium. Every two weeks, sizes of the clusters of cells were reduced by passing through a 20-mesh metallic mesh. Unfiltered cells that were cultured while shaking for four to six days after transferring to a 30-ml medium, were used for Northern blotting's RNA extraction.
(§2) (2) RNA extraction: The extraction of total RNA from cultured cells and green leaves of rice was carried out following the phenol-SDS method. A Polytron homogenizer was used to homogenize tissue in the presence of phenol (about 90% saturated with water) of about tenfold or more volume to the tissue volume, and the same volume of extraction buffer solution (50 mM Tris-HCl pH 9.0, 1% SDS, 50 mM NaCl). The aqueous phase obtained by centrifugation was repeatedly extracted with phenol. The total nucleic acid was precipitated by adding 0.6 volume of isopropanol to the extract and then stirring the mixture. After dissolving the precipitate in water, 0.25 volume of 10 M LiCl was added, and the mixture was cooled on ice. High molecular weight RNA was collected by centrifugation, washed with 70% ethanol, and then dissolved in a small volume of water to be used as an RNA sample.
(3) A method for gibberellin treatment of cultured cells and green leaves: The cultured cells were pre-washed with 2,4-D-free N6 medium several times, and then suspended in the same medium and shaken for two hours at 25° C. Gibberellin (GA3 dissolved in ethanol) was added to make the respective final concentrations and the cells were cultured while shaking for a predetermined time and used for RNA extraction. Nipponbare plants, grown three weeks after seeding, were sprayed with gibberellin. The third and fourth leaves were collected at certain intervals and total RNA was extracted. Elicitor treatment was carried out by directly adding aqueous elicitor solutions to cultured cells of rice.
(4) Hybridization: RNA for the Northern hybridization was denatured by the glyoxal method. 2.7 μl of glyoxal (final concentration, 1 M), 1.6 μl of sodium phosphate (pH 7.0, final concentration, 10 mM), and 8 μl of dimethylsulfoxide (final concentration, 50%) were added to 10 μg of total RNA (3.7 μl). The mixture was kept at 50° C. for one hour and then subjected to electrophoresis in 1.4% agarose (10 mM sodium phosphate, pH 7.0). After electrophoresis, RNA was blotted onto a nylon membrane (Biodyne A) and RNA was fixed onto the membrane by treatment at 80° C. for two hours. Hybridization was carried out in a mixture of 50% formamide, 0.1% SDS, 0.1 mg/ml salmon sperm DNA, 5×SSPE (0.9 M NaCl, 50 mM sodium phosphate, 5 mM EDTA, pH 7.4), and 5× Denhardt's solution (0.1% bovine serum albumin, 0.1% Ficoll, 0.1% polyvinylpyrrolidone) at 42° C. for one day. The membrane was then washed with 0.1×SSC (15 mM NaCl, 1.5 mM sodium citrate) three times for five minutes each at room temperature and twice for 30 minutes each at 65° C. and then exposed on X-ray film.
Therefore, the present inventors examined the gibberellin responsiveness of CIGR1 and CIGR2 genes. Suspension-cultured cells were treated with GA3, which is one of the active-type gibberellins, and changes in the expression of these two genes were analyzed over time. […] To maintain cell division activity, the medium used for culturing plant cells contained 2,4-D, which is one of auxins that are not easily metabolized by plants. It was thought that 2,4-D might suppress the action of gibberellin. Therefore, the cells were pre-washed with 2,4-D-free medium, and after two hours of pre-culture in the same medium, the cells were treated with GA3. […]

Test [2] deals with nine plant bioassays. The settings on record: cited from earlier work.
The test system of test [3] is CIGR1 gene and CIGR2 gene. The test can be described thus: Expression of CIGR1 and CIGR2 genes in green leaves of rice after GA3 spraying. It counts as in vivo, rice (Nipponbare). The settings on record: GA3 50 μM sprayed; third and fourth leaves, three weeks after seeding. As for the experimental part:
FIG. 10 depicts photographs representing the expression of CIGR1 gene and CIGR2 gene in green leaves of rice after GA3 treatment. After spraying rice plants with GA3, the third and fourth leaves were sampled at certain intervals. Total RNA extracted from the third and fourth leaves was analyzed by the Northern blot hybridization method.
as §2, with “sample. […]” for “sample.”
Cultured plant cells are thought to be in an undifferentiated state in the presence of auxins. […] Thus, the responses of these two genes to gibberellin were analyzed in green leaves of rice. […]

For test [4], the system named is CHRC. Particulars: cited from earlier work.
Test [5] has as its system CIGR1 gene and CIGR2 gene. The test is described as follows: Effect of inhibitors on induction of CIGR1 and CIGR2 genes by GA3 in cultured rice cells. The class given is cell-based. The settings on record: inhibitor added ten minutes before; okadaic acid 1 μM, lavendustin A 30 μM, K-252a 20 μM. The method, then:
(§3) FIG. 11 depicts photographs representing the effects of protein kinase inhibitors on elicitor response and gibberellin response. The following compounds were added ten minutes before the treatment with chitin heptamer (GN7) or gibberellin (GA3). (A): the positive control of the elicitor response; (B): okadaic acid (1 μM); (C), lavendustin A (30 μM); (D), K-252a (20 μM).
(§4) In addition, the effects of various inhibitors on the inductions by gibberellin and elicitors of CIGR1 gene and CIGR2 gene in the cultured rice cells were examined. Referring to the results of Kuo et al., cells pretreated with okadaic acid were tested. […] From these observations, protein phosphatase was presumed to be involved in signal transduction from gibberellin to CIGR1 gene and CIGR2 gene in cultured rice cells. Following these experiments, the effects of protein kinase inhibitors were studied.

For test [6], the system named is CIGR1 gene and CIGR2 gene. The test is described as follows: Effect of inhibitors on induction of CIGR1 and CIGR2 genes by chitin heptamer in cultured rice cells. It counts as cell-based. The settings on record: inhibitor added ten minutes before; okadaic acid 1 μM, lavendustin A 30 μM, K-252a 20 μM. The method, then:
as §3, §4

The test system of test [7] is rice. The settings on record: reported; cited from earlier work.
For test [8], the system named is CIGR1 gene and CIGR2 gene. The test can be described thus: Elicitor responsiveness of CIGR1 and CIGR2 genes in cultured rice cells, Northern blot hybridization. The class given is cell-based, rice (Oryza sativa cv. Nipponbare). The method, then:
as §1, §2
(3) A method for gibberellin treatment of cultured cells and green leaves: The cultured cells were pre-washed with 2,4-D-free N6 medium several times, and then suspended in the same medium and shaken for two hours at 25° C. […]
Both CIGR1 gene and CIGR2 gene were identified as elicitor responsive genes using DNA microarray analysis. The elicitor responsiveness of these two genes was analyzed using Northern blot hybridization method. […]

Test [9] deals with PR1, PR10 and OsDRF1 genes. The test is described as follows: Induction of PR1, PR10 and OsDRF1 genes after DEX treatment of transformed rice, oligoarray and Northern. It counts as in vivo, rice (Nipponbare). Particulars: transformed line #7; DEX 30 μM spray. The method, then: FIG. 12 depicts photographs representing the occurrence of expression induction of PR1, PR10 and OsDRF1 genes on induction of CIGR2 gene expression by DEX using a DEX-inducing type promoter. Transformed rice plants #7 and #9 were spray-treated with DEX or ethanol (EtOH; 0.1% v/v). The amounts of mRNA for each gene were measured using northern blot hybridization after zero, 24, 48 and 72 hours.
Using Agrobacterium methods, the plasmid was introduced into rice (Nipponbare). The derived transformed rice was inbred, and second generation seeds were obtained. Each independent line was spray-treated with dexamethasone (DEX; 30 μM, ethanol solution). Over a time course, total RNAs were extracted by phenol methods from the above ground part of the plant. Northern hybridization was carried out using the cDNA of ^32P-labeled CIGR2 as a probe. […] This line was analyzed using a 60mer oligoarray (Agilent) constructed from a total-length rice cDNA library. As a result, induction of three genes (PR1(AK107926), PR10, and OsDRF1 (Defense Response Gene Family 1; AK100816)) was discovered 48-72 hours after dexamethasone treatment. PR1 and PR10 are known to be involved in disease resistance. […]

Test [10] has as its system α-amylase. The settings on record: aleurone layer of wheat; cited from earlier work.
The mark [11] stands for this setting: ten-minute GA3 treatment, 2,4-D-free medium.

For `C=C1C[C@]23C[C@@]1(O)CC[C@H]2[C@@]12CC[C@H](O)[C@@](C)(C(=O)O1)[C@H]2[C@@H]3C(=O)O` [GA1], in test [1], the “induction of CIGR1 and CIGR2 gene expression by gibberellin species” value (“induction … by gibberellin species” for short) is “induced the expression of both genes”. Moreover, the “physiological activity type of gibberellin” value (“physiological activity type” for short) in [2] was “active type”.
For `C=C1C[C@]23C[C@@]1(O)CC[C@H]2[C@@]12C=C[C@H](O)[C@@](C)(C(=O)O1)[C@H]2[C@@H]3C(=O)O` [GA3], the “expression after GA3 treatment” value in test [1] (cells pre-washed and pre-cultured two hours in 2,4-D-free medium) is “Transient expression with a maximum at ten minutes after treatment”. Further, the “change in the amount of expression after GA3 treatment” value in test [1] (medium containing 2,4-D, up to three hours after treatment, both genes) is reported as “no significant change”. In test [1] (setting [11]), the “GA3 concentration at which induction of expression of both genes began to appear” value was 10^−6 M and the “GA3 concentration at which induction reached near saturation” value is reported as ~10^−4 M. The “induction … by gibberellin species” value in test [1] was “induced the expression of both genes”. Also, the “expression of both genes in green leaves after GA3 spraying” value in test [3] was “very rapid transient expression with a maximum at 30 minutes after spraying”. Moreover, the “GA3 concentration required for induction of CHRC by gibberellin” value in [4] (chromoplasts of cucumber petals) is “at least 10^−7 M”. Also, the “GA3 concentration up to which CHRC expression level increased approximately linearly” value in test [4] (cucumber petals) is “up to 10^−4 M”. In addition, in [2], the “physiological activity type” value is “active type”.
With `C=C1C[C@]23C[C@H]1CC[C@H]2[C@@]12CC[C@H](O)[C@@](C)(C(=O)O1)[C@H]2[C@@H]3C(=O)O` [GA4], the “induction … by gibberellin species” value in test [1] is reported as “induced the expression of both genes”. Also, the “physiological activity type” value in test [2] is “active type”.
Regarding `C=C1C[C@]23C[C@H]1CC[C@H]2[C@]1(C(=O)O)CC[C@H](O)[C@@](C)(C(=O)O)[C@H]1[C@@H]3C(=O)O` [GA13], the “induction … by gibberellin species” value in test [1] is “only active type gibberellins induced the expression”. Further, the “physiological activity type” value in [2] is “inactive type”.
`C=C1C[C@]23C[C@@]1(O)CC[C@H]2[C@]1(C(=O)O)CCC[C@@](C)(C(=O)O)[C@H]1[C@@H]3C(=O)O` [GA17]: the “induction … by gibberellin species” value in test [1] is “only active type gibberellins induced the expression”. In test [2], the “physiological activity type” value is “inactive type”.
As to `O=C(O)c1cc(N(Cc2ccccc2O)Cc2cc(O)ccc2O)ccc1O` [Lavendustin A], in test [5], the “inhibition of induction of both genes by GA3” value is reported as “almost completely”. Also, the “inhibition of induction of both genes by chitin heptamer” value in test [6] is given as “hardly inhibited”.
Consider `CC(=O)N[C@H]1[C@H](O[C@@H]([C@H](O)[C@H](C=O)NC(C)=O)[C@H](O)CO)O[C@H](CO)[C@@H](O[C@@H]2O[C@H](CO)[C@@H](O[C@@H]3O[C@H](CO)[C@@H](O[C@@H]4O[C@H](CO)[C@@H](O[C@@H]5O[C@H](CO)[C@@H](O[C@@H]6O[C@H](CO)[C@@H](O)[C@H](O)[C@H]6NC(C)=O)[C@H](O)[C@H]5NC(C)=O)[C@H](O)[C@H]4NC(C)=O)[C@H](O)[C@H]3NC(C)=O)[C@H](O)[C@H]2NC(C)=O)[C@@H]1O` [chitin heptamer, N-acetylchitoheptaose], for which the “elicitor activity in rice depending on oligomer size” value in test [7] is “strongest effects”. The “response (induction of expression) of both genes to chitin oligomers (monomer to heptamer) and chitosan oligomers (tetramer, heptamer)” value in test [8] is “strongest response”. For the same molecule, the “time for which expression continued to increase after chitin heptamer treatment” value in [8] (both genes) is “up to 90 minutes”. Further, the “mRNA amount of CIGR1 and CIGR2 genes after treatment with chitin heptamer” value in test [8] (five minutes after treatment, both genes) was “Significant increases of mRNA amount”.
For the molecule `C[C@@H]1C[C@H]2[C@@H]3CCC4=CC(=O)C=C[C@]4(C)[C@@]3(F)[C@@H](O)C[C@]2(C)[C@@]1(O)C(=O)CO` [dexamethasone], the “time after dexamethasone treatment at which induction of PR1, PR10 and OsDRF1 was discovered” value in test [9] was 48 to 72 h.
As to `C=C1[C@@H](O)[C@@H]2O[C@]3(CC[C@H](/C=C/[C@@H](C)[C@@H]4CC(C)=C[C@@]5(O[C@H](C[C@@](C)(O)C(=O)O)CC[C@H]5O)O4)O3)CC[C@H]2O[C@@H]1[C@@H](O)C[C@H](C)[C@H]1O[C@@]2(CCCCO2)CC[C@H]1C` [okadaic acid], in test [5], the “inhibition of induction of both genes by GA3” value is on record as “inhibited almost completely”. Also, in [10], the “inhibition of gibberellin induction of α-amylase” value is recorded as “specifically inhibited”. Besides, the “inhibition of induction of both genes by chitin heptamer” value in test [6] is on record as “hardly inhibited”.
